Our source for the IC50 values is patent publication US20160143913A1, “COMBINATION” (Novartis AG, priority 2009, published 2016).

Structures are written as SMILES.

Holding throughout (format): cell-based
One test relates to LS-1034. In words: Cell growth inhibition assay (Cell Titer Glo), LS-1034. Particulars: Homo sapiens, 72 h; LS-1034 colon; KRAS_A146T; PIK3CA/PTEN WT; single agent, 3 days, mean ± std. An excerpt: (§1) Human breast tumor line, MDA-MB-175-VII, human colon tumor lines, Colo-205, DLD-1, HCT-8, HT-29, LS-1034, NCI-H508, RKO, SW1417, SW1463, SW480, SW837 and T84, and human lung tumor lines, A427, A549, Calu 3, Calu 6, HCC827, NCI-H1155, NCI-H1355, NCI-H1792, NCI-H23, NCI-H727, SW1573 and SW900 were from ATCC. Human breast tumor line EFM-19 was from German Collection of Microorganisms and Cell Cultures. Human lung tumor line COR-L23 was from European Collection of Cell Cultures (UK). Human colon tumor line KM12 and human lung tumor line Hop62 were from National Cancer Institute. MV522 was from University of California at San Diego. All lines were cultured in RPMI 1640 medium containing 10% fetal bovine serum (FBS).
(§2) All cells were cultured for a minimum of 72 hours prior to cell plating. […] ATP levels were determined by adding Cell Titer Glo® (Promega) according to the manufacturer's protocol. Briefly, Cell Titer Glo® was added each plate, incubated for 30 minutes then luminescent signal was read on the SpectraMax L plate reader with a 0.5 sec integration time.
(§3) Inhibition of cell growth was estimated after treatment with compound or combination of compounds for three days and comparing the signal to cells treated with vehicle (DMSO). Cell growth was calculated relative to vehicle (DMSO) treated control wells. […]
Background: Cellular ATP, detected with luciferase, serves as a proxy for viable cell number.

In the next test the test system is Colo-205. In words: Cell growth inhibition assay (Cell Titer Glo), Colo-205. The settings on record: Homo sapiens, 72 h; Colo-205 colon; BRAF_V600E; PIK3CA/PTEN WT; single agent, 3 days, mean ± std.
Source text: as §1, §2, §3

In the next test the test system is SW1463. In words: Cell growth inhibition assay (Cell Titer Glo), SW1463. The settings on record: Homo sapiens, 72 h; SW1463 colon; KRAS_G12C; PIK3CA/PTEN WT; single agent, 3 days, mean ± std.
Source text: as §1, §2, §3

For another test, the system named is HT-29. In words: Cell growth inhibition assay (Cell Titer Glo), HT-29. The settings on record: Homo sapiens, 72 h; HT-29 colon; BRAF_V600E; PIK3CA_P449T; single agent, 3 days, mean ± std.
Source text: as §1, §2, §3

The next test has as its system SW480. As to the kind of experiment: Cell growth inhibition assay (Cell Titer Glo), SW480. Particulars: Homo sapiens, 72 h; SW480 colon; PIK3CA/PTEN WT; single agent, 3 days, mean ± std.
Source text: as §1, §2, §3

The test system of a further test is SW1417. As to the kind of experiment: Cell growth inhibition assay (Cell Titer Glo), SW1417. Particulars: Homo sapiens, 72 h; SW1417 colon; BRAF_V600E; PIK3CA/PTEN WT; single agent, 3 days, mean ± std.
Source text: as §1, §2, §3

For the next test, the system named is NCI-H1355. As to the kind of experiment: Cell growth inhibition assay (Cell Titer Glo), NCI-H1355. Particulars: Homo sapiens, 72 h; NCI-H1355 lung; KRAS_G13C; PIK3CA/PTEN WT; single agent, 3 days, mean ± std.
Source text: as §1, §2, §3

The next test relates to Calu6. As to the kind of experiment: Cell growth inhibition assay (Cell Titer Glo), Calu6. Particulars: Homo sapiens, Calu-6, 72 h; Calu6 lung; KRAS_Q61K; PIK3CA/PTEN WT; single agent, 3 days, mean ± std.
Source text: as §1, §2, §3

In another test the test system is SW1573. In words: Cell growth inhibition assay (Cell Titer Glo), SW1573. The settings on record: Homo sapiens, 72 h; SW1573 lung; KRAS_G12C; PIK3CA_K111E; single agent, 3 days, mean ± std.
Source text: as §1, §2, §3

The next test has as its system A427. As to the kind of experiment: Cell growth inhibition assay (Cell Titer Glo), A427. Particulars: Homo sapiens, A-427, 72 h; A427 lung; KRAS_G12D; PIK3CA/PTEN WT; single agent, 3 days, mean ± std.
Source text: as §1, §2, §3

In another test the test system is NCI-H727. As to the kind of experiment: Cell growth inhibition assay (Cell Titer Glo), NCI-H727. Particulars: Homo sapiens, 72 h; NCI-H727 lung; KRAS_G12V; PIK3CA/PTEN WT; single agent, 3 days, mean ± std.
Source text: as §1, §2, §3

In a further test the test system is SW837. As to the kind of experiment: Cell growth inhibition assay (Cell Titer Glo), SW837. The settings on record: Homo sapiens, 72 h; SW837 colon; KRAS_G12C; PIK3CA/PTEN WT; single agent, 3 days, mean ± std.
Source text: as §1, §2, §3

For another test, the system named is NCI-H23. As to the kind of experiment: Cell growth inhibition assay (Cell Titer Glo), NCI-H23. The settings on record: Homo sapiens, 72 h; NCI-H23 lung; KRAS_G12C; PIK3CA/PTEN WT; single agent, 3 days, mean ± std.
Source text: as §1, §2, §3

Broadly, the IC50 is the concentration needed to halve the response being measured. With `CC(=O)Nc1cccc(-n2c(=O)n(C3CC3)c(=O)c3c(Nc4ccc(I)cc4F)n(C)c(=O)c(C)c32)c1` [Compound A, N-{3-[3-cyclopropyl-5-(2-fluoro-4-iodo-phenylamino)-6,8-dimethyl-2,4,7-trioxo-3,4,6,7-tetrahydro-2H-pyrido[4,3-d]pyrimidin-1-yl]phenyl}acetamide], the IC50 in the test on LS-1034 turned out to be 5 nM; in the test with Colo-205 it was 1 nM; in the test with SW1463 it was 0.004 ± 0.003 µM; in the test on HT-29 it was 2 ± 1 nM; in the test on SW480, 37 ± 15 nM; in the test with SW1417, 3 ± 1 nM. Further, the half-inhibitory concentration (IC50) was 0.052 ± 0.01 µM with NCI-H1355; 4 ± 3 nM in the test on Calu6; over 1 µM with SW1573; 22 ± 3 nM with A427; 2 nM with NCI-H727.
For `Cn1ncc(Cl)c1-c1cc(C(=O)N[C@H](CN)Cc2cccc(F)c2)sc1Cl` [Compound B, N-{(1S)-2-amino-1-[(3-fluorophenyl)methyl]ethyl}-5-chloro-4-(4-chloro-1-methyl-1H-pyrazol-5-yl)-2-thiophenecarboxamide], the IC50 in the test with SW837 is over 10 µM; in the test with LS-1034 it was 4340 ± 1770 nM; with Colo-205 it was 2570 ± 137 nM; with SW1463, 9.72 ± 0.139 µM; with SW480 it was over 10000 nM; in the test on SW1417, over 10000 nM. Also, the IC50 in the test on NCI-H1355 is 6.69 ± 3.49 µM; in the test on NCI-H23, 7.12 ± 3.8 µM; in the test on Calu6 it was 2150 ± 890 nM; in the test on SW1573, over 8 µM; with A427, over 8000 nM.
